The values below are quoted from earlier work in article PMC10709440, “High-throughput ligand profile characterization in novel cell lines expressing seven heterologous insect olfactory receptors for the detection of volatile plant biomarkers” (Scientific Reports, 2023).

Structures are written as SMILES.

The series has as its system OR13a. Also noted: method as in earlier work. To be noted: DoOR database value; ref DoOR; cited from earlier work.

Regarding `CC(=O)CCC=C(C)C` [6-methyl-5-hepten-2-one], the “OR13a DoOR response” value is 0.44.
